Data: US7871995B2, “Drug delivery system comprising a tetrahydroxylated estrogen for use in hormonal contraception” (Pantarhei Bioscience B.V., priority 2001, dated 2011)
Like-named read-outs stand apart in the source and are kept apart here.

Tests used:
[1] = molecular target: T1, human sex Hormone Binding Globulin (SHBG) (Homo sapiens, UniProt P04278); experiment: Competitive steroid-binding assay for human SHBG; conditions: for relative binding affinity for human SHBG: rising in the order ethinylestradiol, 17β-estradiol, testosterone, 5α-dihydrotestosterone
T1 construct: Human SHBG was purified from transgenic mouse serum; made in house; host or cells: transgenic mouse (serum)
T1 sequence (P04278 30-402): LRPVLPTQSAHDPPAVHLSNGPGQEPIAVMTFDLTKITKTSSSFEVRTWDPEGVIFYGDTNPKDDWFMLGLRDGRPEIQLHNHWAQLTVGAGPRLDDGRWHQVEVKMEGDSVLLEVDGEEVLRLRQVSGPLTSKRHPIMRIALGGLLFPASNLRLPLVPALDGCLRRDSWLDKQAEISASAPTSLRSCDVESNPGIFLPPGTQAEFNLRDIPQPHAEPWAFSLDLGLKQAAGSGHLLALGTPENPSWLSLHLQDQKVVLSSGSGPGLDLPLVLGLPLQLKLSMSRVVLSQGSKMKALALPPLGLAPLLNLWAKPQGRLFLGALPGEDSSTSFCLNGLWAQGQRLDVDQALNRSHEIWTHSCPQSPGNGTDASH
Method: Human SHBG was treated for 30 min at room temperature with a dextran-coated charcoal (DCC) suspension in phosphate buffered saline (PBS) to remove any steroid ligand. After centrifugation (2,000×g for 10 min) to sediment the DCC, the supernatant containing the human SHBG was diluted in PBS to a concentration of 1 nM based on its steroid binding capacity.
The average amounts of [^3H]labeled ligands bound to SHBG at each concentration of competitor (B) were expressed as a percentage of the average amounts of [^3H]labeled ligands bound to SHBG in the absence of competitor (B0), and were. plotted against the concentration of competitor in each assay tube.

[2] = tested on: ovariectomized adult rats (vaginal epithelial cornification); experiment: Vaginal cornification bioassay in ovariectomized rats, subcutaneous dosing; format: in vivo, rat
Method: Adult intact female CD rats were ovariectomized to induce estrogen deficiency. […] Castrate vaginal smears are indicative that complete ovariectomy was achieved. Treatment commenced following completion of the 7 days of smearing (day 0=first day of dosing). Animals were dosed, once daily for 7 consecutive days. Daily vaginal lavages continued to be obtained for 7 days after dosing was initiated in order to detect vaginal cornification, as an indication of an estrogenic response. A drop of vaginal washings was placed on a glass slide and examined by light microscopy to detect the presence or absence of cornified epithelial cells. Vaginal lavages were obtained prior to dosing on days 0-6 and prior to necropsy on day 7. The vaginal cornification bioassay was performed in order to determine the estrogenic profile of E4 when given subcutaneously (sc) to ovariectomized adult rats. E2 was used as a positive control. […] The occurrence of vaginal cornification, indicative of an estrogenic response, is an “all or none” response. Data are, therefore, expressed as the number of rats showing a vaginal estrogenic response over the number of rats (ratio) treated.

[3] = tested on: four-day cyclic rats (ovulation); experiment: Antiovulatory bioassay in four-day cyclic rats, subcutaneous dosing; format: in vivo, rat; conditions: for inhibition of ovulation: EE 1.0-100 μg/kg, E2 and E4 0.1-3.0 mg/kg; for complete ovulation inhibition: twice daily sc, higher dosages
Method: Vaginal smears from female rats are obtained daily for two weeks to select four-day cycling rats. Only four-day cyclic rats are to be used for the antiovulatory bioassay. […] One day after the final dose (day 5), rats are euthanized by CO2 asphyxiation at 1 pm, and the number of ova per oviduct is determined. Group means are subsequently calculated for the number of ova per ovulated rat (both oviducts). The ratio of rats ovulating for each treatment group is compared to the ratio for the vehicle-treated rats.

[4] = Elimination half-life after single subcutaneous dose, plasma by HPLC-MS/MS; format: in vivo, rat; conditions: single sc dose, female Sprague Dawley rats, sampling 0.5-24 hours
Method: To determine the elimination half-life of estetrol (E4) after subcutaneous administration (sc), single dose studies were performed in female Sprague Dawley rats followed by frequent blood sampling over a 24 hours interval.
Female Sprague Dawley rats were equipped with a permanent silatic heart catheter, as described by Kuipers et al. (1985,Gastroenterology, 88, 403-411). Rats were allowed to recover from surgery for 5 days and were than administered 0.05, 0.5,or 5 mg/kg E4 in 0.5 ml arachidis oil. E4 was injected in the neck area using a 1 ml syringe and 20 g needle. Blood samples were subsequently collected via the heart catheter in heparinized tubes at 0.5, 1, 2, 4, 8 and 24 hours. Erythrocytes were removed by centrifugation at 5000×g for 10 minutes at 4° C. and blood plasma was stored at −20° C. […] With each sample batch, a calibration curve with 6 calibrators was recorded. The calibration curve was calculated using linear regression (correlation coefficient>0.98), which permitted quantitation of plasma concentrations. […]
Plasma E4 concentration data were analysed with “WinNonLin, edition 3.1” and involved pharmacokinetic parameters for Cmax, AUC0-24 and half-life.

[5] = tritium labeled, intravenous, two adult women; cited from earlier work
[6] = tested on: human breast cancer cells (MCF-7); conditions: MCF-7, long term tissue culture; cited from earlier work
immature rat uterus = conditions: subcutaneous, Holinka et al., cited from earlier work
uterus = conditions: continuous administration from a subcutaneous depot; Martucci et al., 1977; cited from earlier work

C[C@]12CCC(=O)C[C@@H]1CC[C@@H]1[C@@H]2CC[C@]2(C)[C@@H](O)CC[C@@H]12 [5α-dihydrotestosterone, reference compound]
relative binding affinity for human SHBG [1]: show an increased relative binding affinity for human SHBG

C[C@]12CC[C@@H]3c4ccc(O)cc4CC[C@H]3[C@@H]1CC[C@@H]2O [17β-estradiol]
Number of Rats Exhibiting Estrogenic Response/Number of Rats Treated ([2]; 0.05 mg/kg/day sc, Day 0): 0/8
Number of Rats Exhibiting Estrogenic Response/Number of Rats Treated ([2]; 0.05 mg/kg/day sc, Day 1): 0/8
Number of Rats Exhibiting Estrogenic Response/Number of Rats Treated ([2]; 0.05 mg/kg/day sc, Day 2): 8/8
Number of Rats Exhibiting Estrogenic Response/Number of Rats Treated ([2]; 0.05 mg/kg/day sc, Day 3): 8/8
Number of Rats Exhibiting Estrogenic Response/Number of Rats Treated ([2]; 0.05 mg/kg/day sc, Day 4): 8/8
Number of Rats Exhibiting Estrogenic Response/Number of Rats Treated ([2]; 0.05 mg/kg/day sc, Day 5): 8/8
Number of Rats Exhibiting Estrogenic Response/Number of Rats Treated ([2]; 0.05 mg/kg/day sc, Day 6): 8/8
Number of Rats Exhibiting Estrogenic Response/Number of Rats Treated ([2]; 0.05 mg/kg/day sc, Day 7): 8/8
inhibition of ovulation ([3]; twice daily sc for 4 days): dose-dependently inhibits ovulation
complete ovulation inhibition [3]: complete ovulation inhibition is achieved

C[C@]12CC[C@@H]3c4ccc(O)cc4CC[C@H]3[C@@H]1[C@@H](O)[C@@H](O)[C@@H]2O [estetrol, 1,3,5 (10)-estratrien-3, 15α,16α,17β-tetrol]
Number of Rats Exhibiting Estrogenic Response/Number of Rats Treated ([2]; 1.0 mg/kg/day sc, Day 7, listed as E4): all rats showed a vaginal estrogenic response
Number of Rats Exhibiting Estrogenic Response/Number of Rats Treated ([2]; 3.0 mg/kg/day sc, Day 7, listed as E4): all rats showed a vaginal estrogenic response
onset of vaginal epithelial cornification ([2]; sc 0.1, 0.3, 1.0 and 3.0 mg/kg/day): dose-dependent
day of treatment on which vaginal epithelial cornification started ([2]; sc 0.1, 0.3, 1.0 and 3.0 mg/kg/day, same day as observed for E2): 2 days
plasma levels of unconjugated E4 over a 24 hour interval [4]: detection of bioactive levels of unconjugated E4 at all time points
binding to human SHBG (competitive displacement) ([1]; [3H]DHT as labeled ligand): does not bind at all
binding to human SHBG (competitive displacement) ([1]; [3H]estradiol as labeled ligand): does not bind at all
binding to SHBG compared with the other estrogens tested ([1]; compared with ethinylestradiol and 17β-estradiol): negligible
antiovulatory activity compared with E2 ([3]; twice daily sc for 4 days): equal potency or even more potency in inhibiting ovulation than E2
inhibition of ovulation ([3]; twice daily sc for 4 days): dose-dependently inhibits ovulation
complete ovulation inhibition [3]: complete ovulation inhibition is achieved
metabolism [5]: virtually no metabolism except for conjugation took place
agonistic potency in in vitro cell proliferation, of the magnitude observed for 17β-estradiol [6]: 2%
uterotrophic activity (immature rat uterus; 1979): very weak uterotrophic activity
uterotrophic activity (immature rat uterus; 1980): very weak uterotrophic activity
uterotrophic activity (uterus): very weak uterotrophic activity

C[C@]12CC[C@H]3[C@@H](CCC4=CC(=O)CC[C@@]43C)[C@@H]1CC[C@@H]2O [testosterone, reference compound]
relative binding affinity for human SHBG [1]: show an increased relative binding affinity for human SHBG
